Measured values published in patent US20230132823A1, “BI-FUNCTIONAL COMPOUNDS AND METHODS FOR TARGETED UBIQUITINATION OF ANDROGEN RECEPTOR” (MONTELINO THERAPEUTICS, INC., priority 2020, published 2023).

Assays:
[1] = molecular target: T1, glucocorticoid receptor (GR) (Homo sapiens, UniProt P04150); assay: Immunoblot of GR in 22Rv1 cells; assay type: cell-based; conditions: 22Rv1, 24 hours, up to 10 μM
T1 construct: endogenous in cells; host or cells: 22Rv1
T1 sequence (P04150 1-777): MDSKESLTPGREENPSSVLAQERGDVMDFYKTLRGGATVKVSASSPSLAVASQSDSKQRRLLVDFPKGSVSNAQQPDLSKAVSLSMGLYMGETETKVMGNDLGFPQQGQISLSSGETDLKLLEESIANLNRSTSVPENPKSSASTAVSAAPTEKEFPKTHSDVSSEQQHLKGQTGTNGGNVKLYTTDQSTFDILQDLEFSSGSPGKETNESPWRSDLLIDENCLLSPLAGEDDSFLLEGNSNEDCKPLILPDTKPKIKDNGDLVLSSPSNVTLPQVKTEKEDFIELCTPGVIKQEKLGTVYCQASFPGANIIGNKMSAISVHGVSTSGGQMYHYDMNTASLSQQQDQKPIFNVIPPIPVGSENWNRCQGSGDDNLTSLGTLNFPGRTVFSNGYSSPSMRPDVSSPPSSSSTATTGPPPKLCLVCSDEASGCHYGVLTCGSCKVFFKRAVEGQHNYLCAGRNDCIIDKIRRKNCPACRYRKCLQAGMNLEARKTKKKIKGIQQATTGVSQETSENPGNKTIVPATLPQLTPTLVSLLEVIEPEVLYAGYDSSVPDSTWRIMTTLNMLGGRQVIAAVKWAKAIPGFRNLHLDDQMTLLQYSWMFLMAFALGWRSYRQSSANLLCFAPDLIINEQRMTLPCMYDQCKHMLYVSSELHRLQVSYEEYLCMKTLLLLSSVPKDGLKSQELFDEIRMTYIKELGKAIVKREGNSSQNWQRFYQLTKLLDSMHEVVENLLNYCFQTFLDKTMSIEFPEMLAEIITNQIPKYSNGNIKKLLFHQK
Method: (§1) Cell Culture. Human CaP cell lines, LNCaP, 22Rv1, VCaP, PC3, and DU145 are obtained from the American Type Culture Collection (ATCC) and maintained in the standard culture media: RPMI-1640 supplemented with 10% fetal bovine serum (FBS). LNCaP, 22Rv1, and VCaP are androgen-responsive cell lines, while PC3 and DU145 are not. To establish SAT resistant CaP cell lines, LNCaP, 22Rv1, and VCaP are treated continuously with 10-50 μM abiraterone, apalutamide, darolutamide, or enzalutamide. After 3-6 months, stable cell lines are established and designated as LNCaP-Abi^R, LNCaP-Apa^R, LNCaP-Daro^R, LNCaP-Enz^R, VCaP-Abi^R, VCaP-Apa^R, VCaP-Daro^R, VCaP-Enz^R, 22Rv1-Abi^R, 22Rv1-Apa^R, 22Rv1-Daro^R and 22Rv1-Enz^R. Unless otherwise specified, the standard culture media for these SAT-resistant cell lines included 10 μM of their respective SAT. For the proteasome inhibitor study, the inhibitors MG132 and Epoxomicin are used. The E3 ligase inhibitors Heclin, Nutlin 3a, Thalidomide, and VH298 are used. […] Mycoplasma contamination is also assessed using a PCR based detection system.
(§2) Immunoblot Analysis. […] Cell lysates are then centrifuged and protein in the supernatant is quantified. […] Following the incubation with appropriate secondary antibody, immunoblots are analyzed using SuperSignal West Femto Maximum Sensitivity Substrate (ThermoFisher).

PC3 = PC3 cell proliferation; assay type: cell-based, human; conditions: AR-negative cell line; 1 μM
Method: The human prostate cancer cell line, 22Rv1 has been reported to express a high level of AR-V7. Thus, 22Rv1 was seeded at 50,000 cells/well on a 24-well plate in quadruplicates and treated with test compound in concentrations ranging up to 20 μM for four days. Standard culture media was RPMI-1640 supplemented with 10% fetal bovine serum. The test compound initially was dissolved in DMSO at 50 mM. This stock solution was then diluted as needed for the indicated concentrations. At the end of the four-day period, cells were harvested using 1% trypsin and counted using an automated cell counter.
Cell Culture. Human CaP cell lines, LNCaP, 22Rv1, VCaP, PC3, and DU145 are obtained from the American Type Culture Collection (ATCC) and maintained in the standard culture media: RPMI-1640 supplemented with 10% fetal bovine serum (FBS). LNCaP, 22Rv1, and VCaP are androgen-responsive cell lines, while PC3 and DU145 are not. To establish SAT resistant CaP cell lines, LNCaP, 22Rv1, and VCaP are treated continuously with 10-50 μM abiraterone, apalutamide, darolutamide, or enzalutamide. […] Mycoplasma contamination is also assessed using a PCR based detection system.

22Rv1-Enz^R = 22Rv1-Enz^R cell proliferation assay, GIC50 (Experimental Example 4); assay type: cell-based; conditions: Homo sapiens; 6-day culture, cell media changed every 24 hours
Method: Selected compounds were tested in the human prostate cancer cell line, 22Rv1-Enz^R as described in Geun Taek Lee et al., Molecular Cancer Therapeutics, 20:490-9 (2021). These procedures are similar to that described in Experimental Example 1, above, except that the assay conditions are a 6-day culture with cell media changed every 24 hours.
In the Table: (+)—GIC50<20 μM; (++)—GIC50<10 μM; (+++)—GIC50<1 μM.

[2] = test system: progesterone receptor (PR) a and b; assay: Immunoblot of PR in 22Rv1 cells; assay type: cell-based, human; conditions: 22Rv1, 24 hours, up to 10 μM
Method: as §1, §2

AR-FL = assay: Immunoblot of AR-FL in harvested xenograft tumors; assay type: in vivo, human
Method: Immunoblot Analysis. CaP cells are collected and lysed with the lysis buffer (20 mM Tris-HCl (pH 7.5), 150 mM NaCl, 1 mM Na2EDTA, 1 mM EGTA, 1% Triton, 2.5 mM sodium pyrophosphate, 1 mM beta-glycerophosphate, 1 mM Na3VO4, and 1 μg/ml leupeptin) containing 1 mM phenylmethylsulfonyl fluoride (PMSF). Cell lysates are then centrifuged and protein in the supernatant is quantified. After separating 25-50 μg of protein using SDS-PAGE, samples are incubated with AR-V7, GR, PR, ERα, AR-FL, ubiquitin, or β-actin antibodies. For AR-V7, AR-FL, PR, GR, and ERα immunoblots, primary antibody is diluted 1:1000 in 5% skim milk. For the β-actin immunoblot, 1:10000 diluted primary antibody is used. […] Following the incubation with appropriate secondary antibody, immunoblots are analyzed using SuperSignal West Femto Maximum Sensitivity Substrate (ThermoFisher).
Mice are then treated daily with Test Compound with or without enzalutamide via the indicated route (intratumoral, intraperitoneal, or oral) for five to six weeks. At the end of the study, all animals are sacrificed and tumors are harvested and analyzed. Statistical significance is calculated using the Student's t-test for paired comparisons of experimental groups and, where appropriate, by Wilcoxon rank sum test, and by 2-way ANOVA. […]
The in vivo effects of the Compound of Example 16 are assessed in mice using enzalutamide-resistant CaP xenografts. […]

- effect on expression level of glucocorticoid receptor (GR) [1]: no visible effect
- IC50 (22Rv1-Enz^R): < 1000 nM
SMILES: Cc1ncsc1-c1ccc([C@H](C)NC(=O)[C@@H]2C[C@@H](O)CN2C(=O)[C@@H](NC(=O)CCCCNC(=O)COc2c(-c3csc(N4CCOCC4)n3)ccc(F)c2F)C(C)(C)C)cc1 [Example 16, (2S,4R)-1-((S)-2-(5-(2-(2,3-difluoro-6-(2-morpholinothiazol-4-yl)phenoxy)acetamido)pentanamido)-3,3-dimethylbutanoyl)-4-hydroxy-N-((S)-1-(4-(4-methylthiazol-5-yl)phenyl)ethyl)pyrrolidine-2-carboxamide]
- effect on PC3 cells (PC3): not affected
- effect on expression level of progesterone receptor (PR) a and b [2]: no visible effect
- AR-FL protein expression in Enz^R CaP tumors (AR-FL; IP administration): decreased
- AR-FL protein level in treated tumors (AR-FL; intratumoral, 22Rv1-Enz^R xenograft, end of study): significant decrease
